Results on 34 molecules are retold here after patent US8940720B2, “Macrocycles as factor XIa inhibitors” (Bristol-Myers Squibb Company, priority 2010, dated 2015).

The target of this experiment is purified human Factor XIa (Homo sapiens (Human), UniProt P03951). Kind of experiment: Factor XIa enzyme inhibition assay (chromogenic substrate S-2366). In kind it is biochemical. As to conditions: substrate S-2366, pH 7.4. Here is the method:
The effectiveness of compounds of the present invention as inhibitors of the coagulation Factors XIa, VIIa, IXa, Xa, XIIa, plasma kallikrein or thrombin, can be determined using a relevant purified serine protease, respectively, and an appropriate synthetic substrate. The rate of hydrolysis of the chromogenic or fluorogenic substrate by the relevant serine protease was measured both in the absence and presence of compounds of the present invention. […] A decrease in the rate of absorbance or fluorescence change in the presence of inhibitor is indicative of enzyme inhibition. Such methods are known to one skilled in the art. The results of this assay are expressed as the inhibitory constant, Ki.
Values of Ki were determined by allowing the protease to react with the substrate in the presence of the inhibitor. Reactions were allowed to go for periods of 20-180 minutes (depending on the protease) and the velocities (rate of absorbance or fluorescence change versus time) were measured. The following relationships were used to calculate Ki values: (vo−vs)/vs=I/(Ki(1+S/Km)) for a competitive inhibitor with one binding site; or vs/vo=A+((B−A)/1+((IC50/(I)n))); and Ki=IC50/(1+S/Km) for a competitive inhibitor where: […]

pKi: −log10 of the molar value. Structures can show the parent of a compound that is named as a salt. A value given as a limit tells only on which side of the number the result lay.

Chain of purified human Factor XIa (P03951 388-625): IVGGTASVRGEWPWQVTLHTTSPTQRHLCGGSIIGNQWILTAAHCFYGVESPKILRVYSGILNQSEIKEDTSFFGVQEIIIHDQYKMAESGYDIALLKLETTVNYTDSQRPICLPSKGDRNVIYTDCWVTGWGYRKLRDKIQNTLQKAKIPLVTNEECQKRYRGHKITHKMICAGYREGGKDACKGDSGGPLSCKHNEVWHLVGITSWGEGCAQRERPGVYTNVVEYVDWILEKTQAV
Chain of purified human Factor XIa (P03951 19-387 partner): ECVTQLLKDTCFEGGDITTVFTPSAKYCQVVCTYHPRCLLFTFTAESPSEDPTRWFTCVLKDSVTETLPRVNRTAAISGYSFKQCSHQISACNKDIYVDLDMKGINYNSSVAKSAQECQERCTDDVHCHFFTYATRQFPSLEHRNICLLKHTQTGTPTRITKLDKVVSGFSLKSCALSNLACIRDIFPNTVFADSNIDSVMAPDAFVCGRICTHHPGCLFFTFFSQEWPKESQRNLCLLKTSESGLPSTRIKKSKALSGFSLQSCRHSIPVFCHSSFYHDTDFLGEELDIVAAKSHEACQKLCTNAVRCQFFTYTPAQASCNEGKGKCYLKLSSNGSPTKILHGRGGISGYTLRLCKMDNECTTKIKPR

Molecule `COC(=O)Nc1ccc2c(c1)CCCCCC[C@H](NC(=O)/C=C/c1cc(Cl)ccc1-n1cnnn1)c1nc-2c[nH]1` [Example 6, {(S)-14-[(E)-3-(5-Chloro-2-tetrazol-1-yl-phenyl)-acryloylamino]-16,18-diaza-tricyclo[13.2.1.0^2,7]octadeca-1(17),2,4,6,15(18)-pentaen-5-yl}-carbamic acid methyl ester] had a negative-log Ki (pKi) of 7.47.

`COC(=O)Nc1ccc2c(c1)OCCCCC[C@H](NC(=O)/C=C/c1cc(Cl)ccc1-n1cnnn1)c1nc-2c(Cl)[nH]1` [Example 9, {(S)-17-Chloro-14-[(E)-3-(5-chloro-2-tetrazol-1-yl-phenyl)-acryloylamino]-8-oxa-16,18-diaza-tricyclo[13.2.1.0^2,7]octadeca-1(17),2,4,6,15(18)-pentaen-5-yl}-carbamic acid methyl ester] gave a pKi of 6.60.

On to `COC(=O)Nc1ccc2c(c1)N[C@@H](C(=O)NCc1ccccn1)CCCC[C@H](NC(=O)/C=C/c1cc(Cl)ccc1-n1cnnn1)c1cncc-2c1` [II-58], for which the negative-log Ki (pKi) is 7.68. To `COC(=O)Nc1ccc2c(c1)NC(=O)CC/C=C/C[C@H](NC(=O)c1ccc(C#N)cc1)c1nc-2c(Cl)[nH]1` [Example 136, [(E)-(S)-18-Chloro-15-(4-cyano-benzoylamino)-9-oxo-8,17,19-triaza-tricyclo[14.2.1.0^2,7]nonadeca-1(18),2,4,6,12,16(19)-hexaen-5-yl]-carbamic acid methyl ester, 1 TFA salt] belongs 6.02.

The molecule `COC(=O)Nc1ccc2c(c1)NCC(F)(F)C(=O)NC[C@H](NC(=O)/C=C/c1cc(Cl)ccc1-n1cnnn1)c1nc-2c[nH]1` [Example 21, {(S)-14-[(E)-3-(5-Chloro-2-tetrazol-1-yl-phenyl)-acryloylamino]-10,10-difluoro-11-oxo-8,12,16,18-tetraaza-tricyclo[13.2.1.0^2,7]octadeca-1(17),2,4,6,15(18)-pentaen-5-yl}-carbamic acid methyl ester] gave a pKi of 5.35. This pKi is 0.67 log units lower than that of the molecule before. For `COC(=O)Nc1ccc2c(c1)NC(=O)CCCC[C@H](NC(=O)/C=C/c1cc(Cl)ccc1-n1cnnn1)C1=NC=C2O1` [Example I-134, Methyl N-[(14S)-14-[(2E)-3-[5-chloro-2-(1H-1,2,3,4-tetrazol-1-yl)phenyl]prop-2-enamido]-9-oxo-18-oxa-8,16-diazatricyclo[13.2.1.0^2,7]octadeca-1(17),2(7),3,5,15-pentaen-5-yl]carbamate, trifluoroacetic acid salt], the pKi was over 8.30. In the case of `COC(=O)Nc1ccc2c(c1)NC(=O)CCCC[C@H](NC(=O)c1c(F)cc(C)cc1F)c1cc-2ccn1` [II-4], the pKi was 6.95. With `COC(=O)Nc1ccc2c(c1)NC(=O)CCCC[C@H](NC(=O)c1c(F)cc3c(ncn3C)c1F)c1nc-2c(F)[nH]1` [Example I-21], the pKi was over 8.30. In turn, `COC(=O)Nc1ccc2c(c1)NCCCCC[C@H](NC(=O)/C=C/c1cc(Cl)ccc1-n1cnnn1)c1nc-2c(C#N)[nH]1` [Example I-115, {(S)-14-[(E)-3-(5-Chloro-2-tetrazol-1-yl-phenyl)-acryloylamino]-17-cyano-8,16,18-triaza-tricyclo[13.2.1.0^2,7]octadeca-1(17),2,4,6,15(18)-pentaen-5-yl}-carbamic acid methyl ester, 2 TFA salt] showed a pKi of over 8.30.

Turning to `COC(=O)Nc1ccc2c(c1)NCCCCC[C@H](NC(=O)/C=C/c1cc(C)ccc1-n1cnnn1)c1nc-2c(C#N)[nH]1` [Example I-268], the pKi was 8.05.

Molecule `COC(=O)Nc1ccc2c(c1)CCC/C=C/C[C@H](NC(=O)/C=C/c1cc(Cl)ccc1-n1cnnn1)c1nc-2c[nH]1` [Example 4, {(E)-(S)-14-[(E)-3-(5-Chloro-2-tetrazol-1-yl-phenyl)-acryloylamino]-16,18-diaza-tricyclo[13.2.1.0^2,7]octadeca-1(17),2,4,6,11,15(18)-hexaen-5-yl}-carbamic acid methyl ester] gave a pKi of 6.20.

Regarding `COC(=O)Nc1ccc2c(c1)N[C@@H](C(F)(F)F)CCCC[C@H](NC(=O)/C=C/c1cc(Cl)ccc1-n1cnnn1)c1nc-2c(Cl)[nH]1` [Example I-60], the pKi was 6.21.

The molecule `COC(=O)Nc1ccc2c(c1)NC(C(=O)OC)(C(F)(F)F)CCCC[C@H](NC(=O)/C=C/c1cc(Cl)ccc1-n1cnnn1)c1nc-2c[nH]1` (stereo partly shown) [Example I-104] had a pKi of 6.36. The molecule `O=C(/C=C/c1cc(Cl)ccc1-n1cnnn1)N[C@H]1CCCCCNc2cc(NC(=O)OC[C@H]3CCCO3)ccc2-c2c[nH]c1n2` [Example I-124] had a pKi of over 8.30. To `CCOC(=O)[C@@H]1CCCC[C@H](NC(=O)/C=C/c2c(-n3cnnn3)ccc(Cl)c2F)c2cc(ccn2)-c2ccc(NC(=O)OCCOC)cc2N1` [II-43] belongs 6.03; to `COC(=O)Nc1ccc2c(c1)NC(=O)CCCC[C@H](NC(=O)c1cccc3ccccc13)c1nc-2c[nH]1` [Example I-17], 6.45; to `COC(=O)Nc1ccc2c(c1)NC(=O)CCCC[C@H](NC(=O)c1ccc3cccnc3c1)c1nc-2c[nH]1` [Example I-262], 6.17. Molecule `COC(=O)Nc1ccc2c(c1)NC(=O)CCCCC(NC(=O)/C=C/c1cc(Cl)ccc1-n1cnnn1)c1cc-2nc(C)n1` (stereo not shown) [II-10] gave a negative-log Ki (pKi) of 7.64. As for `COC(=O)Nc1ccc2c(c1)C(=O)C(F)(F)CCCC[C@H](NC(=O)/C=C/c1cc(Cl)ccc1-n1cnnn1)c1nc-2c[nH]1` [Example I-270, {(S)-14-[(E)-3-(5-Chloro-2-tetrazol-1-yl-phenyl)-acryloylamino]-9,9-difluoro-8-oxo-16,18-diaza-tricyclo[13.2.1.0^2,7]octadeca-1(17),2,4,6,15(18)-pentaen-5-yl}-carbamic acid methyl ester, TFA salt], the pKi is 5.76. To `COCCOC(=O)Nc1ccc2c(c1)N[C@@H](C(=O)OC)CCCC[C@H](NC(=O)/C=C/c1cc(Cl)ccc1-n1cnnn1)c1nc-2c(C#N)[nH]1` [Example I-278] belongs over 8.30. In turn, `COC(=O)Nc1ccc2c(c1)NC(=O)CCCC[C@H](NC(=O)c1ccc3ncccc3c1)c1nc-2c[nH]1` [Example I-14] had a pKi of 5.53. `COC(=O)c1ccc2c(c1)-c1c[nH]c(n1)[C@@H](NC(=O)/C=C/c1cc(Cl)ccc1-n1cnnn1)C/C=C/CCC(=O)N2` [Example I-284]: the negative-log Ki (pKi) is 6.99.

In turn, `COC(=O)Nc1ccc2c(c1)NC(C(F)(F)F)CCCC[C@H](NC(=O)C1CCC(CN)CC1)c1cc-2ccn1` (stereo partly shown) [II-13] showed a pKi of over 8.30.

`CCOC(=O)CN1CCCC[C@H](NC(=O)/C=C/c2cc(Cl)ccc2-n2cnnn2)c2nc(c[nH]2)-c2ccc(NC(=O)OC)cc2C1` [Example I-121] gave a pKi of 6.13. `COC(=O)Nc1ccc2c(c1)NC(C(F)(F)F)CC/C=C/C[C@H](NC(=O)/C=C/c1cc(Cl)ccc1-n1cnnn1)c1nc-2c[nH]1` (stereo partly shown) [Example I-211] showed a pKi of 5.66. As for `O=C(/C=C/c1cc(Cl)ccc1-n1cnnn1)N[C@H]1CC=CCCC(=O)Nc2ccccc2C2=NN=C1O2` (mixture of isomers) [Example 122, (E)-3-(5-Chloro-2-tetrazol-1-yl-phenyl)-N-((S)-9-oxo-19-oxa-8,17,18-triaza-tricyclo[14.2.1.0^2,7]nonadeca-1(18),2,4,6,12,16-hexaen-15-yl)-acrylamide, and (Z)-3-(5-Chloro-2-tetrazol-1-yl-phenyl)-N-((S)-9-oxo-19-oxa-8,17,18-triaza-tricyclo[14.2.1.0^2,7]nonadeca-1(18),2,4,6,12,16-hexaen-15-yl)-acrylamide], the pKi was 7.60.

`COC(=O)Nc1ccc2c(c1)CC(C(=O)N(C)C)CCCC[C@H](NC(=O)/C=C/c1cc(Cl)ccc1-n1cnnn1)c1nc-2c[nH]1` (stereo partly shown) [Example I-258] gave a negative logarithm of the Ki (pKi) of 6.02. Molecule `COC(=O)Nc1ccc2c(c1)NC(=O)CC/C=C/C[C@H](NC(=O)c1ccc3c(c1)CCNC3)c1nc-2c[nH]1` [Example I-151] showed a negative logarithm of the Ki (pKi) of over 8.30. Molecule `COC(=O)Nc1ccc2c(c1)NC(=O)CC(O)C(O)C[C@H](NC(=O)/C=C/c1cc(Cl)ccc1-n1cnnn1)c1nc-2c[nH]1` (single isomer, unassigned) [Example 137] gave a pKi of 6.72. Molecule `COC(=O)Nc1ccc2c(c1)NC(=O)CCCC[C@H](NC(=O)c1ccc3c(c1)CCCN3)c1nc-2c[nH]1` [Example I-13] showed a negative-log Ki (pKi) of 6.51. This pKi is 0.21 log units lower than that of the molecule before. As for `COC(=O)Nc1ccc2c(c1)NC(=O)CCC(C)CC[C@H](NC(=O)/C=C/c1cc(Cl)ccc1-n1cnnn1)c1nc-2c[nH]1` (single isomer, unassigned) [Example 61], the pKi was over 8.30. For `O=C(/C=C/c1cc(Cl)ccc1-n1cnnn1)N[C@H]1C/C=C/COC(=O)Nc2ccccc2-c2nc1[nH]c2Cl` [Example 121, (E)-N-((E)-(S)-18-Chloro-9-oxo-10-oxa-8,17,19-triaza-tricyclo[14.2.1.0^2,7]nonadeca-1(18),2,4,6,12,16(19)-hexaen-15-yl)-3-(5-chloro-2-tetrazol-1-yl-phenyl)-acrylamide], the pKi was over 8.30. As to `COC(=O)Nc1ccc2c(c1)NC(=O)C(C)CCC[C@H](NC(=O)c1c(F)cc3c(ncn3C)c1F)c1nc-2c(Cl)[nH]1` (stereo partly shown) [Example I-57], the pKi was 8.18.

Regarding `CCOC(=O)[C@H]1CCCC[C@H](NC(=O)/C=C/c2cc(Cl)ccc2-n2cnnn2)c2nc(c(C#N)[nH]2)-c2ccc(NC(=O)OC)cc2N1` [Example I-251, (9R,14S)-14-[(E)-3-(5-Chloro-2-tetrazol-1-yl-phenyl)-acryloylamino]-17-cyano-5-methoxycarbonylamino-8,16,18-triaza-tricyclo[13.2.1.0^2,7]octadeca-1(17),2,4,6,15(18)-pentaene-9-carboxylic acid ethyl ester, 2 TFA], the pKi was over 8.30.
